Data from patent US5573908A, “Adrenergic receptor as a proto-oncogene” (Duke University, priority 1993, dated 1996).
Positions count from the first letter of the chain named. Several values for one entry are separate records, joined by “and”; a condition that tells them apart may be missing. Equal values may be shown once. Entries after “also recorded” stand apart in the source; their conditions may differ. Read-outs that look alike come from different tables or passages of the source. Values belong to the compound of their own block, whether it stands above or below them.

Experiments:
α1B ADR mutant = target: T1, α1B ADR mutant (Mesocricetus auratus, UniProt P18841, A293L/K290H/R288K); assay: Ligand binding on membranes of RAT-1 fibroblast cell lines expressing the α1B ADR mutant; parameters: species or system hamster; settings: two clones
T1 construct: expressed in transfected cells; host or cells: RAT-1 fibroblasts (vector pZIP-NeoSV(X)1), focus-derived, G418-selected lines
T1 sequence (P18841 1-515 R288K/K290H/A293L): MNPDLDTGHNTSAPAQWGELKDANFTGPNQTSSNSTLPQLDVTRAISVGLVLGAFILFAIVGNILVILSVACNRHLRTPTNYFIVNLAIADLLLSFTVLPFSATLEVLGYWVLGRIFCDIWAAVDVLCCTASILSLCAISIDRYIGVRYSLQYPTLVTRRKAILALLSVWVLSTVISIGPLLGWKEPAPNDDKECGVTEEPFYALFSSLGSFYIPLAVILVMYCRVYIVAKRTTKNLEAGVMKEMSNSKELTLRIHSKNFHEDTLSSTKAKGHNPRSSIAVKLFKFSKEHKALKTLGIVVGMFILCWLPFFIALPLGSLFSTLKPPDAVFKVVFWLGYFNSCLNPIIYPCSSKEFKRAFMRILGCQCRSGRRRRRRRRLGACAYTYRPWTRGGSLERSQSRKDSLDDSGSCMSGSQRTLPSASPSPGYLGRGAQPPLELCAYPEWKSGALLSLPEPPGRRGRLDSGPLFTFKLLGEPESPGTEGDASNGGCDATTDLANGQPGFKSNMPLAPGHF
Method: (§1) In Table 3, RAT-1 fibroblast cell lines transfected with expression vector alone or derived from transformed foci (α1B ADR or α1B ADR mutant) were selected with G418 (300 μg/ml). Ligand binding was performed on membranes prepared from two clones of each in accordance with known techniques (S. Cotecchia et al., Life Sci. 37, 2389 (1986)). For saturation binding analysis, [^125 ] HEAT concentrations ranged from 10 to 500 pM, nonspecific binding was determined using 1 μM prazosin; in competition experiments, the radioligand concentration was 100 pM. Ligand binding parameters were determined using computerized iterative nonlinear regression analysis (P. Munson, Methods in Enzymol. 92, 5432 (1983)). For assessment of receptor coupling to PI hydrolysis, cells were plated in 30 mm dishes, and labeled overnight with 3 μCi/ml of myo-[2-^3 II(N)]-inositol (1Ci=37 GBq; NEN Research Products) in DMEM containing 3.3% FBS in accordance with known techniques (S. Cotecchia et al., Proc. Natl. Acad. Sci. USA 87, 2896 (1990)). After 40 minute stimulation of cells with 10 μM norepinephrine (NE), inositol phosphates were extracted, and separated on AG 1-X8 anion exchange columns (BioRad Labs) in accordance with known techniques (S. Cotecchia et al., Proc. Natl. Acad. Sci. USA 87, 2896 (1990)). Total inositol phosphates were eluted with 1M ammonium formate/0.1M formic acid. Rmax indicates the percentage increase of total labeled inositol phosphates over basal levels following NE stimulation.

α1B ADR = target: T2, α1B ADR (Mesocricetus auratus, UniProt P18841); assay: Ligand binding on membranes of RAT-1 fibroblast cell lines expressing the α1B ADR; parameters: species or system hamster; settings: two clones
T2 construct: expressed in transfected cells; host or cells: RAT-1 fibroblasts (vector pZIP-NeoSV(X)1), focus-derived, G418-selected lines
T2 sequence (P18841 1-515): T1 sequence (P18841 1-515 R288K/K290H/A293L) with K288R, H290K, L293A
Method: as §1

[1] = tested on: RAT-1 fibroblast cell line derived from a single transformed focus expressing the α1B -ADR; assay: Morphology of focus-derived RAT-1 fibroblast cell line expressing the α1B-ADR; type: cell-based; settings: 10 μM NE and 1 μM prazosin, 36 hours
[2] = tested on: RAT-1 fibroblasts transfected with α1B -ADR c-DNA; assay: Focus formation in RAT-1 fibroblasts transfected with α1B-ADR c-DNA; type: cell-based; settings: focus-derived RAT-1 cell lines; data not shown
Method: Transfection was carried out as follows: RAT-1 fibroblasts were seeded at a density of 2×10^5 cells in Dulbecco's modified Eagle's medium (DMEM) (Gibco) containing 5% fetal bovine serum (FBS) in 100 mm dishes. […] After 16 hours, the DNA precipitate was removed, the cells washed and grown for 24 hours in complete medium. Cells were split 1:5, allowed to attach overnight and then cultured in DMEM with 5% FBS alone, supplemented with 10 μM norepinephrine (NE) or G418 (300 μg/ml). Dishes were supplemented with NE daily, and fed every 3 days with fresh medium.

[3] = saturation binding 10 to 500 pM, nonspecific binding with 1 μM prazosin, read-out: [125I] HEAT Kd
[4] = serum free medium, data not shown

SMILES: COC(=O)[C@@H]1[C@H]2C[C@H]3c4[nH]c5ccccc5c4CCN3C[C@@H]2CC[C@@H]1O [yohimbine]
blockade of NE-induced increase in DNA synthetic activity (α1B -ADR): not

Kd (α1B ADR mutant; [3]): 0.0379 nM and 0.0463 nM
[125I] HEAT Bmax (α1B ADR mutant; saturation binding): 2.2 pmol/mg and 2.6 pmol/mg
Kd (α1B ADR; [3]): 0.0441 nM and 0.0383 nM
[125I] HEAT Bmax (α1B ADR; saturation binding): 5.1 pmol/mg and 2.7 pmol/mg
SMILES: O=C1c2ccccc2CCC1CNCCc1ccc(O)c([125I])c1 (stereo not shown) [[^125 I] HEAT, 2{b-(4-hydroxy-3-[^125 I]iodophenyl)ethylaminomethyl}-tetralone]

SMILES: COc1cc2nc(N3CCN(C(=O)c4ccco4)CC3)nc(N)c2cc1OC [prazosin]
blockade of NE-induced increase in DNA synthetic activity (α1B -ADR): could be blocked
effect of concurrent antagonist on agonist-induced transformation (morphology) [1]: blocked agonist-induced transformation; also recorded: reverted the cells to the untransformed phenotype
inhibition of agonist-dependent focus formation by concurrent antagonist [2]: could be inhibited

SMILES: CC(C)NCC(O)COc1cccc2ccccc12 (stereo not shown) [propranolol]
blockade of NE-induced increase in DNA synthetic activity (α1B -ADR; [4]): not

SMILES: c1ccc2c(c1)OCC(C1=NCCN1)O2 (stereo not shown) [idazoxan]
blockade of NE-induced increase in DNA synthetic activity (α1B -ADR; [4]): not
